Experimental data reported in patent US12678412B2, “Substituted tolans for the modulation of microbial colonization” (BioMendics, LLC, priority 2017, dated 2026).

Tested on: NEB 5 α competent E. coli
Assay: Bacterial colony forming assay (Examples 6-9)
Assay type: cell-based
Conditions: for Effect on E. coli colony count: PEG-400/HPβCD mixed into alcohol gel, FIG. 1; for Inhibition of E. coli growth: alcohol gel formulation, FIG. 2
Experimental: NEB 5 α competent E. coli were retrieved from frozen cultures and grown overnight in a bacterial incubator at 37° C. Proliferating cultures of bacteria were used in a colony forming assay by adding 25 μL of bacteria from the overnight culture to 10 mL of fresh Lysogeny Broth (LB; Bertani, G. (2004). “Lysogeny at mid-twentieth century: P1, P2, and other experimental systems”. Journal of Bacteriology. 186 (3): 595-600. PMC 321500. PMID 14729683. doi:10.1128/JR.186.3.595-600.2004). 1 mL of this diluted bacteria was added to various dilutions of formulations of substituted tolan compounds as described in Table C, below and in charts of the corresponding Figures.
One mL of each formulation was mixed with 1 mL of diluted bacteria in LB and put onto agar plates. Alcohol gels were allowed to dry and incubated overnight for 16-18 hrs. Control plates consisted of 2 mL alcohol gel plus 1 mL diluted bacteria, resulting in a colony count of less than 10 colonies, a 1 mL alcohol gel plus 1 mL diluted bacteria, resulting in a partial lawn of bacteria (colonies were too close to count appropriately), 1 mL diluted bacteria alone, resulting in a full lawn of bacteria (no distinguishable colonies), and an appropriate dilution of PEG-400 and HPβCD into 1 mL of alcohol gel plus 1 mL diluted bacteria, resulting in a lawn of bacteria. Plate area was then selected and the Image J colony counter was used to obtain colony counts (Size (pixels squared) 5-1000 and circularity 0.5-1).

COc1ccc(C#Cc2ccc(O)cc2)cc1 [BM3103, 4-hydroxy-4′-methoxytolan]
Effect on E. coli colony count (280 μM (62.5 μg/mL) dilution): reduced the E. coli colony count considerably | Effect on E. coli colony count (557 μM (125 μg/mL) dilution): reduced colonization even more | Inhibition of E. coli growth (2.23 mM (500 μg/mL)): inhibited E. coli growth completely | Inhibition of E. coli growth (4.45 mM (1000 μg/mL)): inhibited E. coli growth completely
